From patent publication US20110178456A1, “ASSISTING TRANSDERMAL DRUG DELIVERY BY MEANS OF TISSUE FREEZING, VACUUM PRESSURE AND PHOTOHEATING PROCEDURES” (THE REGENTS OF THE UNIVERSITY OF CALIFORNIA, priority 2009, published 2011)

Assays:
[1] = assay type: in vitro ADME, pork
Protocol: A study comprising applying conjugated FITC-Dextran with 4000 Daltons molecular weight as a surrogate of water-soluble drugs on ex vivo pork skin samples was performed. Thermoelectric coolers and other cooling devices can be used as well. In these experiments […] was used as the cryogenic agent. Exposure time can range from minutes to millisecond exposures, depending on the type of coolant used. […] For applying suction, any method of creating suction or positive pressure on the skin can be used. For example, the Isolaze device from […] can be used to apply a suction of 380 mm Hg. To investigate this, a study was initiated consisting of applying conjugated FITC-Dextran with 4000 Daltons molecular weight as a surrogate of water-soluble drugs on ex vivo pork skin samples. After exposing skin samples for 30 min to 3 hours after topical application, a cross-sections of skin was cut ( 20 microns thick) to observe directly the Dextran penetration via the intensity of the FITC fluorescence with the aid of a confocal fluorescent microscope.

[2] = Case clinical study: penetration after topical application with cryo-cracking versus simple rubbing; assay type: in vivo; conditions: 3 hrs after topical application using cryo-cracking procedure
Excerpt: This study also included FITC with Dextran of 4 kDa and 70 kDA.

Row | Compound | transdermal delivery of drug surrogate using the cryo-cracking process [1] | penetration into the stratum corneum and epidermis down the microcracks, compared to penetration after simple rubbing [2]
1 | O=C1OC2(c3ccc(O)cc3Oc3cc(O)ccc32)c2ccc(N=C=S)cc21 [FITC] | effectively delivered | much more significant
2 | Dylight | delivered | 
